From PubChem BioAssay (NCI) come the findings set out here.

Test systems include DMS 114 small cell lung; M19-MEL melanoma; LXFL 529 NSCLC; DLD-1 colon; DMS 273 small cell lung; XF 498 CNS; P388 leukemia; P388/ADR leukemia; SN12K1 renal; HOP-18 NSCLC; RXF-631 renal.
Experiment in all cases: NCI tumour cell line growth inhibition, 48 h

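Where inhibition never reached the appropriate level, the endpoint shown equals the highest concentration tested. Otherwise, values were interpolated linearly from a five-concentration, 48-hour dose response in 96-well plates. The concentration for full growth arrest is given as TGI.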

Consider `CC1(C)OC[C@H](C(=N)OCc2ccccc2)O1`, for which the TGI in the assay with DMS 114 small cell lung, in the assay with M19-MEL melanoma, in the assay on LXFL 529 NSCLC, in the assay on DLD-1 colon, in the assay with DMS 273 small cell lung and with XF 498 CNS was over 100 µM throughout.

As to `CC[C@@]1(O)C[C@H](OC2CC(N(C)C)C(O)C(C)O2)c2c(cc3c(c2O)C(=O)c2c(O)ccc(O)c2C3=O)[C@H]1C(=O)OC` (stereo partly drawn), the TGI in the assay with DMS 114 small cell lung was found to be 0.489 µM; with M19-MEL melanoma, 0.288 µM; in the assay on P388 leukemia, 0.0317 µM; in the assay with P388/ADR leukemia it was 0.0561 µM; in the assay with DLD-1 colon, 0.891 µM; with DMS 273 small cell lung, 0.406 µM. Moreover, the TGI in the assay on XF 498 CNS stood at 0.463 µM; in the assay on SN12K1 renal, 0.256 µM; with HOP-18 NSCLC it was 1.3 µM.

Turning to `O=C(CCBr)N1CCN(C(=O)CCBr)CC1`, the TGI with DMS 114 small cell lung was 140 µM; with M19-MEL melanoma, 252 µM; in the assay on P388 leukemia, 293 µM; in the assay with LXFL 529 NSCLC it was 137 µM; with P388/ADR leukemia it was 181 µM; in the assay on DLD-1 colon, 202 µM. For the same molecule, the TGI came out at 134 µM with RXF-631 renal; 168 µM in the assay on DMS 273 small cell lung; 133 µM in the assay on XF 498 CNS; 196 µM in the assay with SN12K1 renal; 238 µM in the assay with HOP-18 NSCLC.

On to `CC1=NN(C(=O)Cc2ccccc2)C(=O)/C1=C\c1ccc([N+](=O)[O-])cc1`, for which the TGI with DMS 114 small cell lung, in the assay with M19-MEL melanoma, with LXFL 529 NSCLC, with DLD-1 colon and in the assay with XF 498 CNS was over 100 µM throughout.

Consider `CN(C)CCNC(=O)c1cccc2ccc(-c3ccc(Br)cc3)nc12`, for which the TGI in the assay on DMS 114 small cell lung was determined as 9.8 µM; in the assay with M19-MEL melanoma, 6.15 µM; in the assay with P388 leukemia it was 8.48 µM; with P388/ADR leukemia, 4.44 µM; in the assay on DLD-1 colon, 10.8 µM; in the assay with DMS 273 small cell lung, 5.81 µM. Also, the TGI is 6.94 µM with XF 498 CNS, 2.63 µM with SN12K1 renal and 8.25 µM with HOP-18 NSCLC.

As to `CCC12CCCN(Cc3ccccc3)C1c1c(n(C)c3ccccc13)C(CO)C2` (stereo not drawn), the TGI was 84.5 µM with DMS 114 small cell lung; 125 µM with M19-MEL melanoma; 87.4 µM in the assay on LXFL 529 NSCLC; over 257 µM in the assay on DLD-1 colon; 142 µM in the assay with RXF-631 renal; 89.7 µM in the assay with DMS 273 small cell lung. In the assay with XF 498 CNS, the TGI was 79.7 µM.

On to `CCc1cc(C)cc2[n+]1CC=C2`, for which the TGI in the assay with DMS 114 small cell lung came out at 44.3 µM; in the assay with M19-MEL melanoma, 52.4 µM; with LXFL 529 NSCLC, 79.2 µM; with DMS 273 small cell lung, 6.55 µM; with XF 498 CNS, 20.4 µM; in the assay on HOP-18 NSCLC, 0.0991 µM.

Take `COC1OCC(O)C(NC(=O)N(C)N=O)C1O` (stereo not drawn): the TGI with DMS 114 small cell lung, in the assay on M19-MEL melanoma, in the assay on P388 leukemia, with P388/ADR leukemia, in the assay with DLD-1 colon and in the assay with DMS 273 small cell lung was over 100 µM each time. The TGI in the assay with XF 498 CNS, with SN12K1 renal and in the assay with HOP-18 NSCLC was over 100 µM each time.

For `O=C(Cc1nc2ccc(C(=O)c3ccccc3)cc2[nH]c1=O)C(=O)Nc1nc2ccccc2[nH]1`, the TGI in the assay on DMS 114 small cell lung is 79.4 µM; in the assay with M19-MEL melanoma it was over 100 µM; in the assay on LXFL 529 NSCLC, over 100 µM; with RXF-631 renal, over 100 µM; with DMS 273 small cell lung it was over 100 µM; in the assay on HOP-18 NSCLC it was over 100 µM.

On to `Nc1nc(NCCOCP(=O)(O)O)c([N+](=O)[O-])c(=O)[nH]1`, for which the TGI in the assay with M19-MEL melanoma, in the assay on LXFL 529 NSCLC, with DLD-1 colon, with DMS 273 small cell lung, with XF 498 CNS and with HOP-18 NSCLC was over 100 µM in each case.

In the case of `CN(C)C(=O)Oc1c(Br)cc(Br)cc1C(=O)OCc1ccccc1`, the TGI was 53.1 µM with DMS 114 small cell lung; 44.3 µM in the assay on M19-MEL melanoma; 43 µM with P388 leukemia; 41.6 µM with P388/ADR leukemia; over 96.8 µM in the assay with DLD-1 colon; over 73.2 µM in the assay on DMS 273 small cell lung. The TGI is 49.2 µM with XF 498 CNS, over 88.2 µM in the assay with SN12K1 renal and 96.9 µM in the assay on HOP-18 NSCLC.
